Values of other authors in EP3952993B1, “METHOD OF TREATING FUMARIC ACID ESTER-RESISTANT PLAQUE PSORIASIS” (Almirall S.A., priority 2019, dated 2020).
Counter-ions that a name gives are not always drawn.

Test system: patients diagnosed with moderate-to-severe psoriasis
Conditions: up to 720 mg/daily; 16 weeks; vs Fumaderm and placebo

In the case of `COC(=O)/C=C/C(=O)OC` [DMF, dimethyl fumarate], the “co-primary endpoints: PASI 75 and clear/almost clear in the PGA” value is given as “significantly superior to placebo and non-inferior to FAEs”.
